Results from patent US20230271969A1, “NITROGEN-CONTAINING FUSED RING DERIVATIVE INHIBITOR, PREPARATION METHOD THEREFOR AND USE THEREOF” (Shanghai Hansoh Biomedical Co., Ltd., priority 2020, published 2023).
Where two headings read alike, the source gives them in different places.

How the values were obtained:
NK3 receptors = biological target: T1, NK3 receptors (Homo sapiens, UniProt P29371); assay: Antagonism of IP1 in HEK293 cells with stable expression of NK3; format: cell-based; settings: agonist Senktide 3 nM, read-out: NK3R IC50 (nM) IP1
T1 construct: expressed in transfected cells
T1 sequence (P29371 1-465): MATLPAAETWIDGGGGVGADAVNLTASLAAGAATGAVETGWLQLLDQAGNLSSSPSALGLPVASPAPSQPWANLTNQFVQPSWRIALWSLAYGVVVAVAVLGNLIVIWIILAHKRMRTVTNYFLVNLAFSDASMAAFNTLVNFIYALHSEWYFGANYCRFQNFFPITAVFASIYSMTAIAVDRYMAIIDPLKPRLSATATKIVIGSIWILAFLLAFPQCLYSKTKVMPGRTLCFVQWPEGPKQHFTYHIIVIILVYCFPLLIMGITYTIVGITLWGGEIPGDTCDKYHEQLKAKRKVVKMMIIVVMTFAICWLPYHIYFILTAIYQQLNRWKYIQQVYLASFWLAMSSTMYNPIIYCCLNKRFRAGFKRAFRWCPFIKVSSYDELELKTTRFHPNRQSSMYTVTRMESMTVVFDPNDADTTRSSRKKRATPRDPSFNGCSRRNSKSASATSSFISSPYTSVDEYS

[1] = Pharmacokinetic assay in SD rats (plasma and brain tissue); format: in vivo; settings: rat, po, male SD rats, p.o. 5 mg/kg; for AUC(0-t): read-out: Area under curve AUC0-t; for Tmax: read-out: Peak time tmax; for Cmax: read-out: Plasma concentration Cmax
Experimental: Test Example 4. Pharmacokinetic Assays in SD Rats
SD rats were used as test animals. The in vivo (plasma and brain tissue) pharmacokinetic behavior of the compounds of the present invention was investigated by oral administration of the compound in rats at a dose of 5 mg/kg.
Male SD rats (21 animals per group), purchased from Shanghai JieSiJie Laboratory Animal Co., Ltd., under the Animal Production License Number of SCXK (Shanghai) 2013-0006 No. 311620400001794.
The experimental drug was dissolved in 0.5% CMC-Na (1% Tween 80) by sonication to formulate a clear solution or a homogeneous suspension.
After an overnight fast, male SD rats (21 animals per group) were administered p.o. with the experimental drug at an administration dose of 5 mg/kg and the administration volume of 10 mL/kg.
Rats were sacrificed with CO2 at 0, 0.5, 1, 2, 4, 8 and 24 hours before and after the drug administration. 8 mL of blood was collected by cardiac puncture, placed in EDTA-K2 tubes, and centrifuged at 4° C. at 6,000 rpm for 6 min. Plasma was separated and stored at −80° C. The whole brain tissue was dissected and weighed, and then placed in a 2 mL centrifuge tube and stored at −80° C.
2.6 Sample Processing: • 1) 160 μL of acetonitrile was added to 40 μL of plasma sample for precipitation. After mixing, the sample was centrifuged at 3500×g for 5-20 minutes. • 2) 90 μL of acetonitrile containing internal standard (100 ng/mL) was added to 30 μL of plasma or brain homogenate sample for precipitation. After mixing, the sample was centrifuged at 13,000 rpm for 8 minutes. • 3) 70 μL of water was added to 70 μL of treated supernatant, and mixed by vortex for 10 minutes. Then 20 μL of the sample was analyzed by LC/MS/MS to determine the concentration of the compound to be tested. The LC/MS/MS instrument for analysis was AB Sciex API 4000 Qtrap.
2.7 Liquid Chromatography Analysis: • Liquid chromatography conditions: Shimadzu LC-20AD pump • Chromatographic column: Agilent ZORBAX XDB-C18 (50×2.1 mm, 3.5 μm) Mobile phase: Eluent A was 0.1% formic acid in water, and Eluent B was acetonitrile. • Flow rate: 0.4 mL/min • Elution time: 0-4.0 minutes, the eluate was as follows:
The major pharmacokinetic parameters were calculated by using WinNonlin 6.1, and the results of the pharmacokinetic experiments in rats were shown in Table 3 below: […]

| SMILES | IC50 (NK3 receptors) [nM] | AUC(0-t) ([1]; Brain) [ng·h/mL] | Tmax ([1]; Brain) [h] | Cmax ([1]; Brain) [ng/mL] | AUC(0-t) ([1]; Plasma) [ng·h/mL] | half-life ([1]; Plasma, read-out: Half life t1/2 (converted)) [h] | MRT ([1]; Plasma, read-out: Mean residence time MRT) [h] | Tmax ([1]; Plasma) [h] | Cmax ([1]; Plasma) [ng/mL] |
| --- | --- | --- | --- | --- | --- | --- | --- | --- | --- |
| [2H]c1cc(C(=O)N2CCn3c(-c4nc(Cl)ns4)nnc3[C@H]2C)ccc1F [Example 56, (R)-(3-(3-Chloro-1,2,4-thiadiazol-5-yl)-8-methyl-5,6-dihydro-[1,2,4]triazolo[4,3-a]pyrazin-7(8H)-yl)(4-fluorophenyl-3-d)methanone] | 76 | 2710 | 1 | 798 | 6150 | 3.1 | 5.1 | 2 | 1170 |
| C[C@@H]1c2nnc(-c3nc4cnc(Cl)cc4s3)n2CCN1C(=O)c1ccc(F)cc1 [Example 37, (R)-(3-(6-Chlorothiazolo[4,5-c]pyridin-2-yl)-8-methyl-5,6-dihydro-[1,2,4]triazolo[4,3-a]pyrazin-7(8H)-yl)(4-fluorophenyl)methanone] | 56.5 | 4200 | 4 | 1640 | 77800 |  |  | 8 | 4000 |
